Entries after “also recorded” stand apart in the source; their conditions may differ.

One data set deals with human primary cells. The data set is described as follows: BioMAP Safety and Toxicology screening profile. The format is cell-based. On the procedure:
The BioMAP Toxicity Screening Profile was performed as described previously.

The target in data set [1] is T1, hERG (Homo sapiens, UniProt Q12809). Put plainly: in vitro.
For data set [2], the target named is T2, mammalian V-ATPase purified from pig kidneys (Sus scrofa, UniProt Q9TVC1).
T2 construct: the entire V-ATPase complex (800 kDa) was purified as described previously from porcine kidneys; from tissue; host or cells: porcine kidney
T2 sequence (Q9TVC1 whole entry): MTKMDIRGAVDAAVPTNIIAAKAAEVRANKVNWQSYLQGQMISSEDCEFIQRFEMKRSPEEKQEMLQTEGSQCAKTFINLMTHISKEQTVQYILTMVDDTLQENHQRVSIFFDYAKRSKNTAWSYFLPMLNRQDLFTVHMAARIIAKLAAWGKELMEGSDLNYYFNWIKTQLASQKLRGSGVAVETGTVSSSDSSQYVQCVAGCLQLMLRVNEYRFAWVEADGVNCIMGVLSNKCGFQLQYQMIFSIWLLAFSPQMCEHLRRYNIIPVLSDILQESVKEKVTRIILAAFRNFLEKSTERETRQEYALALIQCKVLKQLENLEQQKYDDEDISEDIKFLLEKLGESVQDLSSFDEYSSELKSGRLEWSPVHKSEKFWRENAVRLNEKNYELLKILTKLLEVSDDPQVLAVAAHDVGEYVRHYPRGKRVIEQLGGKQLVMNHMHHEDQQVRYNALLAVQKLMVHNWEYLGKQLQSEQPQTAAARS
T2 sequence (Q29048 whole entry partner): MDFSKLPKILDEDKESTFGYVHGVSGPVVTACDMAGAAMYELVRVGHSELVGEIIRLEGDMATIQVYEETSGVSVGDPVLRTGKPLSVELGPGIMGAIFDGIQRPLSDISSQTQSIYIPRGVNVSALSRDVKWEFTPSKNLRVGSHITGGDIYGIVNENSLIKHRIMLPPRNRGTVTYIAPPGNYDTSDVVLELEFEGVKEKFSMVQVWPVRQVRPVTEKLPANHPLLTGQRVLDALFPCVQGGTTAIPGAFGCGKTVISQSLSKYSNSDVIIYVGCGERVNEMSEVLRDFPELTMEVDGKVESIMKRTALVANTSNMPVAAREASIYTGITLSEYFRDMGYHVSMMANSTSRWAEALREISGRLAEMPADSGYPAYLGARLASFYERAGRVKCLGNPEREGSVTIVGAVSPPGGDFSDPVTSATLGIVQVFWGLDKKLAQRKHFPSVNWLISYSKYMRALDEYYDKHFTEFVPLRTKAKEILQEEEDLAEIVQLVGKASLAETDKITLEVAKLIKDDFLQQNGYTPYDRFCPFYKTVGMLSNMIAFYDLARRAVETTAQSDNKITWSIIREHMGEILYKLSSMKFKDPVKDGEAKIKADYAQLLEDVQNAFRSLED
The data set is described as follows: Biochemical V-ATPase (ATP hydrolysis) assay. The following applies: concentrations as low as 1 μM. How it is done: V-ATPase was purified as described previously from yeast[82] using the detergent dodecylmaltoside and porcine kidney[83] using the detergent glycol-diosgenin. ATPase assays with purified V-ATPase were performed as described previously. 249C (mammalian: 0.1, 1, 10, 100 μM and yeast: 5, 10 and 100 μM) or BafA1 (1 μM) were added to the reaction and compared with a negative control to which only DMSO was added. Enzyme-coupled ATPase biochemical activity assays were performed in a 96-well plate as described previously.

For another data set, the target named is T3, Yeast V-ATPase (Saccharomyces cerevisiae, UniProt P25515+P41807).
T3 construct: V-ATPase was purified as described previously from yeast[82] using the detergent dodecylmaltoside; endogenous in cells; host or cells: yeast
T3 sequence (P25515 whole entry): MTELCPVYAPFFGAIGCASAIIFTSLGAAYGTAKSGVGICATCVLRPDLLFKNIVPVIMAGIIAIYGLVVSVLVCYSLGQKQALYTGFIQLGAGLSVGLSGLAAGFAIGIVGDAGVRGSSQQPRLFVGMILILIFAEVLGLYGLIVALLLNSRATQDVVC
T3 sequence (P41807 2-478): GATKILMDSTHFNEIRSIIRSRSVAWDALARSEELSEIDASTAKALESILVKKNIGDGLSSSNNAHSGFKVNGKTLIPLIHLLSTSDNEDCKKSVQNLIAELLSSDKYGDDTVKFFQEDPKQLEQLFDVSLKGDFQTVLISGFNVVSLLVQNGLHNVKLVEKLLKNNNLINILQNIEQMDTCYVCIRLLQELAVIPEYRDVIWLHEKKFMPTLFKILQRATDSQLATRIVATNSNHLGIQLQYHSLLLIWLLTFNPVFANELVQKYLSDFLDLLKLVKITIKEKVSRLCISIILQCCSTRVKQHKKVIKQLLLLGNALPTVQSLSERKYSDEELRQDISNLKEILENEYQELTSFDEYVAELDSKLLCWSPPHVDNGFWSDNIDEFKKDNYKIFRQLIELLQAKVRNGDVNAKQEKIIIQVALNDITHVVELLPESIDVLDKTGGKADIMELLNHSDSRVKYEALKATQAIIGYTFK
Put plainly: Biochemical V-ATPase (ATP hydrolysis) assay. How it is done:
V-ATPase was purified as described previously from yeast[82] using the detergent dodecylmaltoside and porcine kidney[83] using the detergent glycol-diosgenin. ATPase assays with purified V-ATPase were performed as described previously. 249C (mammalian: 0.1, 1, 10, 100 μM and yeast: 5, 10 and 100 μM) or BafA1 (1 μM) were added to the reaction and compared with a negative control to which only DMSO was added. Enzyme-coupled ATPase biochemical activity assays were performed in a 96-well plate as described previously. […]
appears to cause accumulation of high molecular weight entities. Representative of 3 independent experiments. […]
observed. Data shown are mean ± SD ( n = 3) Two-tailed student’s t-test (C) ATP-dependent fluorescence quenching in yeast (me an ± SD; n = 3 ) Two-t ailed student’s t-test (D) SDS PAGE over th e cou rse of recombinant human ATP6V1H protein purification. 1. Mark ers; 2. Total l ysate (GST-fusion […]); 3. Soluble lysate; 4.
GSTrap flow-through; 5. GSTrap elute; 6. Post thrombin cleavage (target 54 kDa, GST 25 kDa); 7. Subtractive GSTrap flow -through; 8. Markers; 9. Final sample, 1 µg protein load. Repres entative of 2 independent ex periments. (E) Structure of biotin- 249C. […]
interfere with V-ATPas e binding. ( F) Experimental schematic of Bio-la yer inferometr y (B L I) .
(1 picture or pasted object on this page, not shown here)

Data set [3] relates to V-ATPase-dependent proton transport in HEK293T cells. Put plainly: Proton pumping assay, FITC-Dextran-loaded lysosomes. The format is cell-based, human. As to conditions: 1 h treatment, listed as BafA1. An excerpt:
Figure 4. […] (A) Model of the reversible assembly of V-ATPase. Cytosolic V1 subunits are depicted in blue and membrane Vo subunits in purple. Upon V-ATPase assembly, ATP is hydrolyzed to ADP accompanied by proton (H^+) pumping and luminal acidification (decrease in pH) (Created with BioRender). […] The amount of subunit B2 present in the membrane fraction indicates the amount of assembled V-ATPase. A representative Western blot is presented. […] Cells were mechanically lysed, and a fraction containing FITC-Dextran-loaded lysosomes was isolated by sedimentation centrifugation. Fluorescence was measured over time to assess pH-dependent quenching following addition of 1 mM magnesium-ATP (predetermined). […] Representative of 5 individual experiments with n = 3 for each is presented (mean ± SD) (D) Mammalian V-ATPase activity measured in the absence and presence of 1 μM 249C and 1 μM BafA1. Data shown are mean ± SD; n = 3. […]
4 × 10^6 HEK 293T cells were plated in 10-cm plates. […] Sample fluorescence was excited at 490 nm, and emission fluorescence at 520 nm was measured continuously in BioTek plate reader (Synergy) using Gen5 software (version 3.05). After initial fluorescence stabilization, 1 mM ATP and 2 mM MgCl2 were added to initiate ATPase activity and proton pumping into the lysosomes, which causes quenching of FITC in the lysosomal lumen. […]

The target in data set [4] is T1, hERG. The data set is described as follows: hERG fluorescence polarization assay. The following applies: human. In general terms: hERG is a cardiac potassium channel; its block is linked to QT prolongation.
Data set [5] has as its target human ether-à-go-go-related gene (hERG) (Homo sapiens, UniProt Q12809). The data set is described as follows: hERG fluorescence polarization assay. The following applies: at 30 μM.

T1 sequence (Q12809 whole entry): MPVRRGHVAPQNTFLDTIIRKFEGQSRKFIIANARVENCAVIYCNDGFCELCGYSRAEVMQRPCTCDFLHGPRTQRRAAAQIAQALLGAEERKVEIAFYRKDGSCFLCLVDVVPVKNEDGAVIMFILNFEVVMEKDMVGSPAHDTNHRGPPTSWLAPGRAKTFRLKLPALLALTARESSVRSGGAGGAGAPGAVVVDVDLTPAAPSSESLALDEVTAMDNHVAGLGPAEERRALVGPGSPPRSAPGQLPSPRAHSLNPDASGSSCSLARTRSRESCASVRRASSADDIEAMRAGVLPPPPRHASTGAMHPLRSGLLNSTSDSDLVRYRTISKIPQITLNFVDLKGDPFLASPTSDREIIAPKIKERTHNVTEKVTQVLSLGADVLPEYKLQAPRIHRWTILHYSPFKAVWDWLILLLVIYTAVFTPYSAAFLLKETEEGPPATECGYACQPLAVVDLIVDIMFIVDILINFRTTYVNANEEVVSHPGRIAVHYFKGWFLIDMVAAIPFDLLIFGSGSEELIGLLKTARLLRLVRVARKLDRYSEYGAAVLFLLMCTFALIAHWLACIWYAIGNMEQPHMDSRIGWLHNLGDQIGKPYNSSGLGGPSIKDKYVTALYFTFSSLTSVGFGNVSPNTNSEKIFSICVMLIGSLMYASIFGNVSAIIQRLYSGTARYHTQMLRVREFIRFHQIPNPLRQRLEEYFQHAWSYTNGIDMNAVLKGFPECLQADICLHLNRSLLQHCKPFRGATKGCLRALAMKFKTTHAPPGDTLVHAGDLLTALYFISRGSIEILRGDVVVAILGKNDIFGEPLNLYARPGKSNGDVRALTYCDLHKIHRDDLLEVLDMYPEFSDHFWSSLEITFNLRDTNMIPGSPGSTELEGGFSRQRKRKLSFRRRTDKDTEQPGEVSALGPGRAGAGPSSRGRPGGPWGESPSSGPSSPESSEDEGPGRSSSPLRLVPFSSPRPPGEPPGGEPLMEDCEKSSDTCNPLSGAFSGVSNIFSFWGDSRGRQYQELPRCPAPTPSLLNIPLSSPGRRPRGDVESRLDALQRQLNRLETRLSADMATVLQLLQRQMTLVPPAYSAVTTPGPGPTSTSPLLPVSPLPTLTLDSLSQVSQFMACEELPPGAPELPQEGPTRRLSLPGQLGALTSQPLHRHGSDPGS
Chain of human ether-à-go-go-related gene (hERG) (Q12809 whole entry): as above

On to `CCN(CCO)CCCC(C)Nc1ccnc2cc(Cl)ccc12` (stereo not shown) [HCQ, hydroxychloroquine], for which, in the data set on human primary cells (human, 1000 nM), the “BioMAP Screening Profile 3C:SRB” value turned out to be 0, the “BioMAP Screening Profile 4H:SRB” value amounted to 0, the “BioMAP Screening Profile BE3C:SRB” value worked out at 0 and the “BioMAP Screening Profile BF4T:SRB” value came out at 0. In addition, in the data set with human primary cells (human, 1000 nM), the “BioMAP Screening Profile BT:PBMC Cytotoxicity” value is 0, the “BioMAP Screening Profile CASM3C:SRB” value is 0, the “BioMAP Screening Profile Cytotoxicity” value is given as 0 and the “BioMAP Screening Profile HDF3CGF:SRB” value was determined as 0. Besides, in the data set with human primary cells (human, 1000 nM), the “BioMAP Screening Profile KF3CT:SRB” value is on record as 0, the “BioMAP Screening Profile LPS:SRB” value was determined as 0, the “BioMAP Screening Profile MyoF:SRB” value turned out to be 0 and the “BioMAP Screening Profile SAg:PBMC Cytotoxicity” value turned out to be 0. In addition, in the data set on human primary cells (human, 1000 nM), the “BioMAP Screening Profile SAg:SRB” value was found to be 0, the “BioMAP Screening Profile lMphg:SRB” value amounted to 0 and the “BioMAP Screening Profile lMphg:SRB-Mphg” value is reported as 0. The molecule also returned an inhibition at 30 µM against hERG [1] of approximately 60%.

As to `CO/C1=C\C(C)=C\[C@@H](C)[C@@H](O)[C@@H](C)C/C(C)=C/C=C/[C@H](OC)[C@@H]([C@@H](C)[C@@H](O)[C@H](C)[C@@]2(O)C[C@@H](O)[C@H](C)[C@@H](C(C)C)O2)OC1=O` [Bafilomycin A1, reference compound], in data set [2], the “ATP hydrolysis of intact mammalian V-ATPase” value is “blocked ATP hydrolysis”. The “Yeast V-ATPase activity” value at Yeast V-ATPase is listed as “modest inhibition”. Besides, the “V-ATPase-dependent proton transport (ATP-dependent fluorescence quenching)” value in data set [3] is “inhibited V-ATPase-dependent proton transport; also recorded: ATP-dependent fluorescence quenching was not observed”. The “toxicity categories / adverse events in BioMAP safety profiling” value with human primary cells (over 100 biomarker readouts) is on record as 2. For the same molecule, the inhibition at 30 µM against hERG [4] came to 35%.

In the case of `CN(CCCCCCNc1ccnc2cc(Cl)ccc12)CCCCCCNc1ccnc2cc(Cl)ccc12` [DC661], in data set [5], the “Percent inhibition of hERG” value is 100%.

As a reminder, the inhibition is the drop in the measured response relative to a control, in per cent. The low end stands for a response near the control, the high end for a response far below the control.

For the origin of these results see paper PMC9750872, “Ras-mutant cancers are sensitive to small molecule inhibition of V-type ATPases in mice” (Nature biotechnology, 2022).
